From PubChem BioAssay AID256 (DTP/NCI, 2004)
“And” between values parts separate entries of the source, which are not always exact repeats. Equal values may be shown once. Toxic doses and inconclusive results are not listed. The calls were made as follows: active = survival T/C of 150% or more; inactive = T/C below 125% in these data.

Test system: CD2F1 mice, L1210 leukemia ip, survival T/C
Assay: NCI In Vivo Anticancer Drug Screen. Data for tumor model L1210 Leukemia (intraperitoneal) in CD2F1 (CDF1) mice
Details: higher = longer survival
Summary of the method: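 Mice carrying a transplanted tumor received test compound or vehicle alone. The value is the measurement in the treated group divided by that in the vehicle-treated control group.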

[1] = endpoint: mean survival time, dose: 25.0 mg/kg/injection, schedule: Q01DX009 (ip), vehicle: saline with Tween-80
[2] = endpoint: mean survival time, dose: 100.0 mg/kg/injection, schedule: Q04DX003 (ip), vehicle: saline with Tween-80
[3] = endpoint: mean survival time, dose: 400.0 mg/kg/injection, schedule: Q04DX003 (ip), vehicle: saline with Tween-80
[4] = endpoint: mean survival time, dose: 200.0 mg/kg/injection, schedule: Q04DX003 (ip), vehicle: saline with Tween-80
[5] = endpoint: mean survival time, dose: 50.0 mg/kg/injection, schedule: Q01DX009 (ip), vehicle: saline with Tween-80
[6] = endpoint: mean survival time, dose: 100.0 mg/kg/injection, schedule: Q01DX009 (ip), vehicle: saline with Tween-80
[7] = endpoint: mean survival time, dose: 200.0 mg/kg/injection, schedule: Q01DX009 (ip), vehicle: saline with Tween-80
[8] = endpoint: mean survival time, dose: 400.0 mg/kg/injection, schedule: Q01DX009 (ip), vehicle: saline with Tween-80
[9] = endpoint: mean survival time, dose: 100.0 mg/kg/injection, schedule: Q04DX002 (ip), vehicle: saline with Tween-80
[10] = endpoint: mean survival time, dose: 200.0 mg/kg/injection, schedule: Q04DX002 (ip), vehicle: saline with Tween-80
[11] = endpoint: mean survival time, dose: 100.0 mg/kg/injection, schedule: Q01DX001 (ip), vehicle: saline with Tween-80
[12] = endpoint: mean survival time, dose: 200.0 mg/kg/injection, schedule: Q01DX001 (ip), vehicle: saline with Tween-80
[13] = endpoint: mean survival time, dose: 100.0 mg/kg/injection, schedule: Q04DX003 (ip), vehicle: other
[14] = endpoint: mean survival time, dose: 200.0 mg/kg/injection, schedule: Q04DX003 (ip), vehicle: other

Measured: T/C

CC(C)c1ccc2c(c1)CCC1C(C)(CN)CCCC21C (stereo not drawn) (tested in a mixture with another compound)
inactive: endpoint: mean survival time, dose: 6.25 mg/kg/injection, schedule: Q01DX001 (ip), vehicle: saline with Tween-80 91 % of control | endpoint: mean survival time, dose: 6.25 mg/kg/injection, schedule: Q01DX009 (ip), vehicle: saline with Tween-80 101 % of control | endpoint: mean survival time, dose: 12.5 mg/kg/injection, schedule: Q01DX001 (ip), vehicle: saline with Tween-80 96 % of control | endpoint: mean survival time, dose: 12.5 mg/kg/injection, schedule: Q01DX009 (ip), vehicle: saline with Tween-80 101 % of control | endpoint: mean survival time, dose: 25.0 mg/kg/injection, schedule: Q01DX001 (ip), vehicle: saline with Tween-80 87 % of control | [1] 101 % of control

O=c1[nH]c(=O)n(C2OC3COC2C3O)cc1F (stereo not drawn)
inactive: endpoint: median survival time, dose: 12.5 mg/kg/injection, schedule: Q01DX005 (ip), vehicle: saline with Tween-80 101 % of control | endpoint: median survival time, dose: 25.0 mg/kg/injection, schedule: Q01DX005 (ip), vehicle: saline with Tween-80 106 % of control | endpoint: median survival time, dose: 50.0 mg/kg/injection, schedule: Q01DX005 (ip), vehicle: saline with Tween-80 102 % of control | endpoint: median survival time, dose: 100.0 mg/kg/injection, schedule: Q01DX005 (ip), vehicle: saline with Tween-80 97 % of control | endpoint: median survival time, dose: 200.0 mg/kg/injection, schedule: Q01DX005 (ip), vehicle: saline with Tween-80 96 % of control

CCC(/C=C/C(C)C1CCC2C3CCC45CC4CCC5(C)C3CCC12C)C(C)C (stereo not drawn)
inactive: [2] 97 % of control | [3] 87 % of control

Nc1ncnc2nc(-c3ccc(C[P+](c4ccccc4)(c4ccccc4)c4ccccc4)cc3)[nH]c12
inactive: [2] 101 % of control | [4] 95 % of control | [3] 101 % of control

Cc1cc(C)c(NC(=O)CC#N)c(C)c1
inactive: [1] 88 % of control | [5] 86 % of control | [6] 93 % of control

C=CCN1C(=O)c2ccccc2C1=O
inactive: [6] 98 % of control | [2] 97 % of control | [7] 94 % of control | [4] 101 % of control | [8] 100 % of control | [3] 101 % of control

Nc1ncnc2c1[nH]c(=S)n2C1OC(CO)C(O)C1O (stereo not drawn)
inactive: [9] 107 % of control | [10] 103 % of control | endpoint: mean survival time, dose: 400.0 mg/kg/injection, schedule: Q04DX002 (ip), vehicle: saline with Tween-80 100 % of control

CCc1ccc(C)[nH]c1=S
inactive: [5] 105 % of control | [11] 102 % of control | [6] 98 % of control | [12] 102 % of control | [7] 98 % of control

CC1(C)OC2COC(OCc3ccccc3)C(OCc3ccccc3)C2O1 (stereo not drawn)
inactive: [6] 104 % of control | [7] 101 % of control | [8] 96 % of control

O=c1[nH]cc(F)c(=O)[nH]1.[Tl]
inactive: endpoint: mean survival time, dose: 1.5 mg/kg/injection, schedule: Q01DX009 (ip), vehicle: water 106 % of control | endpoint: mean survival time, dose: 3.1 mg/kg/injection, schedule: Q01DX009 (ip), vehicle: water 112 % of control | endpoint: mean survival time, dose: 6.25 mg/kg/injection, schedule: Q01DX009 (ip), vehicle: water 124 % of control | endpoint: mean survival time, dose: 12.5 mg/kg/injection, schedule: Q01DX009 (ip), vehicle: water 91 % of control

O=P1(C(Cl)Cl)OCCCCO1
inactive: endpoint: mean survival time, dose: 100.0 mg/kg/injection, schedule: Q01DX001 (ip), vehicle: saline 102 % of control | endpoint: mean survival time, dose: 200.0 mg/kg/injection, schedule: Q01DX001 (ip), vehicle: saline 102 % of control | endpoint: mean survival time, dose: 400.0 mg/kg/injection, schedule: Q01DX001 (ip), vehicle: saline 105 % of control

Nc1c(Cl)ncnc1NNC(=O)OCc1ccccc1
inactive: endpoint: mean survival time, dose: 100.0 mg/kg/injection, schedule: Q01DX001 (ip), vehicle: carboxymethylcellulose (CMC) 104 % of control | endpoint: mean survival time, dose: 200.0 mg/kg/injection, schedule: Q01DX001 (ip), vehicle: carboxymethylcellulose (CMC) 98 % of control | endpoint: mean survival time, dose: 400.0 mg/kg/injection, schedule: Q01DX001 (ip), vehicle: carboxymethylcellulose (CMC) 103 % of control

Cc1ccc(CC(=O)O)cc1C
inactive: [2] 98 % of control | [4] 95 % of control | [3] 98 % of control

[Cl][Pt+2][Cl].[NH-]CC(O)C[NH-]
inactive: endpoint: median survival time, dose: 5.0 mg/kg/injection, schedule: Q04DX003 (ip), vehicle: saline 108 % of control | endpoint: median survival time, dose: 10.0 mg/kg/injection, schedule: Q04DX003 (ip), vehicle: saline 103 % of control | endpoint: median survival time, dose: 20.0 mg/kg/injection, schedule: Q04DX003 (ip), vehicle: saline 105 % of control | endpoint: median survival time, dose: 40.0 mg/kg/injection, schedule: Q04DX003 (ip), vehicle: saline 108 % of control

CCn1c(=O)c2nc(Br)n(C3OCC(OC(C)=O)C(OC(C)=O)C3OC(C)=O)c2n(CC)c1=O (stereo not drawn)
inactive: endpoint: mean survival time, dose: 12.5 mg/kg/injection, schedule: Q01DX005 (ip), vehicle: distilled water + Tween-80 104 % of control | endpoint: mean survival time, dose: 25.0 mg/kg/injection, schedule: Q01DX005 (ip), vehicle: distilled water + Tween-80 104 % of control | endpoint: mean survival time, dose: 50.0 mg/kg/injection, schedule: Q01DX005 (ip), vehicle: distilled water + Tween-80 100 % of control | endpoint: mean survival time, dose: 100.0 mg/kg/injection, schedule: Q01DX005 (ip), vehicle: distilled water + Tween-80 93 % of control | endpoint: mean survival time, dose: 200.0 mg/kg/injection, schedule: Q01DX005 (ip), vehicle: distilled water + Tween-80 88 % of control

CCC(=O)OC(=N)C(=N)OC(=O)CC
inactive: endpoint: mean survival time, dose: 25.0 mg/kg/injection, schedule: Q04DX002 (ip), vehicle: saline with Tween-80 98 % of control | endpoint: mean survival time, dose: 50.0 mg/kg/injection, schedule: Q04DX002 (ip), vehicle: saline with Tween-80 98 % of control | [9] 98 % of control | [10] 95 % of control

O=C1CSCC(=O)N1
inactive: [13] 111 % of control | [14] 111 % of control | endpoint: mean survival time, dose: 400.0 mg/kg/injection, schedule: Q04DX003 (ip), vehicle: other 98 % of control

O=[N+]([O-])c1cc(S(=O)(=O)O)cc([N+](=O)[O-])c1Cl
inactive: endpoint: mean survival time, dose: 25.0 mg/kg/injection, schedule: Q01DX009 (ip), vehicle: saline 103 % of control | endpoint: mean survival time, dose: 50.0 mg/kg/injection, schedule: Q01DX009 (ip), vehicle: saline 96 % of control | endpoint: mean survival time, dose: 100.0 mg/kg/injection, schedule: Q01DX009 (ip), vehicle: saline 98 % of control and 103 % of control

O=C(/C(Br)=C/c1ccccc1)c1ccccc1
inactive: [13] 103 % of control | [14] 105 % of control

O=S(=O)(O)O.[NH-]CC(=O)O.[NH-]CC(=O)O.[NH-]CC(=O)O.[NH-]CC(=O)O.[Pt+2].[Pt+2]
inactive: endpoint: mean survival time, dose: 3.13 mg/kg/injection, schedule: Q04DX003 (ip), vehicle: distilled water + Tween-80 101 % of control | endpoint: mean survival time, dose: 6.25 mg/kg/injection, schedule: Q04DX003 (ip), vehicle: distilled water + Tween-80 104 % of control | endpoint: mean survival time, dose: 12.5 mg/kg/injection, schedule: Q04DX003 (ip), vehicle: distilled water + Tween-80 97 % of control | endpoint: mean survival time, dose: 25.0 mg/kg/injection, schedule: Q04DX003 (ip), vehicle: distilled water + Tween-80 112 % of control | endpoint: mean survival time, dose: 50.0 mg/kg/injection, schedule: Q04DX003 (ip), vehicle: distilled water + Tween-80 98 % of control

CCc1ccc(OC2OC(CO)C(OC3OC(CO)C(O)C(O)C3O)C(O)C2O)cc1 (stereo not drawn)
inactive: endpoint: mean survival time, dose: 75.0 mg/kg/injection, schedule: Q01DX001 (ip), vehicle: steriod suspending solution 92 % of control | endpoint: mean survival time, dose: 150.0 mg/kg/injection, schedule: Q01DX001 (ip), vehicle: steriod suspending solution 92 % of control | endpoint: mean survival time, dose: 300.0 mg/kg/injection, schedule: Q01DX001 (ip), vehicle: steriod suspending solution 95 % of control

CCCSCC(CSCCC)(CSCCC)CSCCC
inactive: [11] 107 % of control | [12] 111 % of control | endpoint: mean survival time, dose: 400.0 mg/kg/injection, schedule: Q01DX001 (ip), vehicle: saline with Tween-80 101 % of control

Cc1cc(NC(=O)Nc2ccc(Cl)cc2)no1
inactive: endpoint: mean survival time, dose: 50.0 mg/kg/injection, schedule: Q01DX009 (ip), vehicle: saline sonified 96 % of control | endpoint: mean survival time, dose: 100.0 mg/kg/injection, schedule: Q01DX009 (ip), vehicle: saline sonified 96 % of control | endpoint: mean survival time, dose: 200.0 mg/kg/injection, schedule: Q01DX009 (ip), vehicle: saline sonified 96 % of control

CN(C)CCCNc1cc(O)c2c(c1O)C(=O)c1ccccc1C2=O
inactive: endpoint: mean survival time, dose: 25.0 mg/kg/injection, schedule: Q01DX009 (ip), vehicle: water 98 % of control | endpoint: mean survival time, dose: 50.0 mg/kg/injection, schedule: Q01DX009 (ip), vehicle: water 98 % of control | endpoint: mean survival time, dose: 100.0 mg/kg/injection, schedule: Q01DX009 (ip), vehicle: water 95 % of control | endpoint: mean survival time, dose: 200.0 mg/kg/injection, schedule: Q01DX009 (ip), vehicle: water 98 % of control
